Tests used:
[1] = molecular target: DAPK1 (human) (UniProt P53355); assay: KINOMEscan competition binding; conditions: compound 10.0 µM
[2] = molecular target: PLK4 (human) (UniProt O00444); assay: KINOMEscan competition binding; conditions: compound 10.0 µM
[3] = molecular target: PDGFRA (human) (UniProt P16234); assay: KINOMEscan competition binding; conditions: compound 10.0 µM
[4] = molecular target: CSNK2A1 (human) (UniProt P68400); assay: KINOMEscan competition binding; conditions: compound 10.0 µM
[5] = molecular target: CDK11A (human) (UniProt Q9UQ88); assay: KINOMEscan competition binding; conditions: compound 10.0 µM
[6] = system: RET (human), P07949 [M918T]; assay: KINOMEscan competition binding; conditions: compound 10.0 µM
[7] = molecular target: CSNK2A2 (human) (UniProt P19784); assay: KINOMEscan competition binding; conditions: compound 10.0 µM
[8] = molecular target: PIM1 (human) (UniProt P11309); assay: KINOMEscan competition binding; conditions: compound 10.0 µM
[9] = molecular target: STK17A (human) (UniProt Q9UEE5); assay: KINOMEscan competition binding; conditions: compound 10.0 µM
[10] = molecular target: STK10 (human) (UniProt O94804); assay: KINOMEscan competition binding; conditions: compound 10.0 µM
[11] = molecular target: PIM3 (human) (UniProt Q86V86); assay: KINOMEscan competition binding; conditions: compound 10.0 µM
[12] = molecular target: PIM2 (human) (UniProt Q9P1W9); assay: KINOMEscan competition binding; conditions: compound 10.0 µM
[13] = molecular target: FLT4 (human) (UniProt P35916); assay: KINOMEscan competition binding; conditions: compound 10.0 µM
[14] = molecular target: PHKG1 (human) (UniProt Q16816); assay: KINOMEscan competition binding; conditions: compound 10.0 µM
[15] = molecular target: SLK (human) (UniProt Q9H2G2); assay: KINOMEscan competition binding; conditions: compound 10.0 µM
[16] = molecular target: RPS6KA6 KD2 (human) (UniProt Q9UK32); assay: KINOMEscan competition binding; conditions: compound 10.0 µM
[17] = molecular target: STK24 (human) (UniProt Q9Y6E0); assay: KINOMEscan competition binding; conditions: compound 10.0 µM
[18] = molecular target: STK17B (human) (UniProt O94768); assay: KINOMEscan competition binding; conditions: compound 10.0 µM
[19] = molecular target: TLK1 (human) (UniProt Q9UKI8); assay: KINOMEscan competition binding; conditions: compound 10.0 µM
[20] = system: KIT (human), P10721 [V559D]; assay: KINOMEscan competition binding; conditions: compound 10.0 µM
[21] = molecular target: KIT (human) (UniProt P10721); assay: KINOMEscan competition binding; conditions: compound 10.0 µM
[22] = molecular target: RPS6KA2 KD2 (human) (UniProt Q15349); assay: KINOMEscan competition binding; conditions: compound 10.0 µM
[23] = molecular target: DDR1 (human) (UniProt Q08345); assay: KINOMEscan competition binding; conditions: compound 10.0 µM
[24] = molecular target: DDR2 (human) (UniProt Q16832); assay: KINOMEscan competition binding; conditions: compound 10.0 µM
[25] = molecular target: KDR (human) (UniProt P35968); assay: KINOMEscan competition binding; conditions: compound 10.0 µM
[26] = molecular target: HIPK1 (human) (UniProt Q86Z02); assay: KINOMEscan competition binding; conditions: compound 10.0 µM
[27] = molecular target: RPS6KA1 KD2 (human) (UniProt Q15418); assay: KINOMEscan competition binding; conditions: compound 10.0 µM
[28] = molecular target: MARK3 (human) (UniProt P27448); assay: KINOMEscan competition binding; conditions: compound 10.0 µM
[29] = molecular target: FLT1 (human) (UniProt P17948); assay: KINOMEscan competition binding; conditions: compound 10.0 µM
[30] = molecular target: RET (human) (UniProt P07949); assay: KINOMEscan competition binding; conditions: compound 10.0 µM
[31] = molecular target: TIE1 (human) (UniProt P35590); assay: KINOMEscan competition binding; conditions: compound 10.0 µM
[32] = system: KIT (human), P10721 [V559D/T670I]; assay: KINOMEscan competition binding; conditions: compound 10.0 µM
[33] = molecular target: CDC2L2 (human) (UniProt Q9UQ88); assay: KINOMEscan competition binding; conditions: compound 10.0 µM
[34] = molecular target: MAPK8 (human) (UniProt P45983); assay: KINOMEscan competition binding; conditions: compound 10.0 µM
[35] = molecular target: CDK11B (human) (UniProt P21127); assay: KINOMEscan competition binding; conditions: compound 10.0 µM
[36] = molecular target: PDGFRB (human) (UniProt P09619); assay: KINOMEscan competition binding; conditions: compound 10.0 µM
[37] = molecular target: PIM1 (human) (UniProt P11309); assay: SelectScreen, TR FRET
[38] = molecular target: PIM2 (human) (UniProt Q9P1W9); assay: SelectScreen, TR FRET
[39] = molecular target: EPHA8 (human) (UniProt P29322); assay: KINOMEscan competition binding; conditions: compound 10.0 µM
[40] = molecular target: GAK (human) (UniProt O14976); assay: KINOMEscan competition binding; conditions: compound 10.0 µM
[41] = molecular target: PLK1 (human) (UniProt P53350); assay: KINOMEscan competition binding; conditions: compound 10.0 µM
[42] = molecular target: TTK (human) (UniProt P33981); assay: KINOMEscan competition binding
[43] = molecular target: TTK (human) (UniProt P33981); assay: SelectScreen, TR FRET

Sequence of TTK (human) (P33981 whole entry, looked up): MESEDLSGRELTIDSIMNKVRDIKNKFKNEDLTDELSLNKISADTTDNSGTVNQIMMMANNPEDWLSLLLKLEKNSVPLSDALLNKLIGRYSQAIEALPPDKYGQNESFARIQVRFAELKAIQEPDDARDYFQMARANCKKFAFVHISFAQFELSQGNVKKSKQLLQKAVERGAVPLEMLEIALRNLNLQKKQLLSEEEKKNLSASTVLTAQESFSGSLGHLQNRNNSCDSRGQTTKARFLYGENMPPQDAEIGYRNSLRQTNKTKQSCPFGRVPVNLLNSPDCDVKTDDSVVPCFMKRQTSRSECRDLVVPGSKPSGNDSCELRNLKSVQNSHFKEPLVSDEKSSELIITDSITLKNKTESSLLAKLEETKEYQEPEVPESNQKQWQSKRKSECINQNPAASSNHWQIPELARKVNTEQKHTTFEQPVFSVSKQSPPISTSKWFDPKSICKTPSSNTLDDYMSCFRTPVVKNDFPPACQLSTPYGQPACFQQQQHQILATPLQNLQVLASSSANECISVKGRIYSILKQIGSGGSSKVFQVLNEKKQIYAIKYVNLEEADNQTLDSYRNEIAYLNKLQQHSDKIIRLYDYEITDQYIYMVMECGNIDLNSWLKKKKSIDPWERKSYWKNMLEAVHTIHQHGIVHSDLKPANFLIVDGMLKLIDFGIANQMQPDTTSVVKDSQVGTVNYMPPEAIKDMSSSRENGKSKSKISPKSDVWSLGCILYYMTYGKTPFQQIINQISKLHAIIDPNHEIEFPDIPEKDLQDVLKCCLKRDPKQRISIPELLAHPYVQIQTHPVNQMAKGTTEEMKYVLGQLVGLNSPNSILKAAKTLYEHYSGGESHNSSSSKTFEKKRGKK
Sequence of PIM2 (human) (Q9P1W9 whole entry, looked up): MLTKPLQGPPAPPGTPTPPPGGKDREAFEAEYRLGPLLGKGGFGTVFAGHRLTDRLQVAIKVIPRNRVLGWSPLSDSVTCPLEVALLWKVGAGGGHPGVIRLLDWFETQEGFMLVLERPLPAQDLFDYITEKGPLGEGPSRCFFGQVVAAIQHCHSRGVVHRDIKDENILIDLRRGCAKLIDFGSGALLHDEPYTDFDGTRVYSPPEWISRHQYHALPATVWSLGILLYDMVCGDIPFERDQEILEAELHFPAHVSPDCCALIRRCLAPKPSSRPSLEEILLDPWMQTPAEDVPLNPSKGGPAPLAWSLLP
Sequence of PIM1 (human) (P11309 whole entry, looked up): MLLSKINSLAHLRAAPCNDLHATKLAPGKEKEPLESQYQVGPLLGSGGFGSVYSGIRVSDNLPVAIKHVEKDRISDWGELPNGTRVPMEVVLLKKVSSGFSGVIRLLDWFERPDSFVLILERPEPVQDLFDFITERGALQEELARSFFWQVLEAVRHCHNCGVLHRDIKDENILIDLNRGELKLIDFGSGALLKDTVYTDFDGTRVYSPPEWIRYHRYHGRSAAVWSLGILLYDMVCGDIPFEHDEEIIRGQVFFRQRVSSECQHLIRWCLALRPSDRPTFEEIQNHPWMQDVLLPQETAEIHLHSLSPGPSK
Sequence of STK17A (human) (Q9UEE5 whole entry, looked up): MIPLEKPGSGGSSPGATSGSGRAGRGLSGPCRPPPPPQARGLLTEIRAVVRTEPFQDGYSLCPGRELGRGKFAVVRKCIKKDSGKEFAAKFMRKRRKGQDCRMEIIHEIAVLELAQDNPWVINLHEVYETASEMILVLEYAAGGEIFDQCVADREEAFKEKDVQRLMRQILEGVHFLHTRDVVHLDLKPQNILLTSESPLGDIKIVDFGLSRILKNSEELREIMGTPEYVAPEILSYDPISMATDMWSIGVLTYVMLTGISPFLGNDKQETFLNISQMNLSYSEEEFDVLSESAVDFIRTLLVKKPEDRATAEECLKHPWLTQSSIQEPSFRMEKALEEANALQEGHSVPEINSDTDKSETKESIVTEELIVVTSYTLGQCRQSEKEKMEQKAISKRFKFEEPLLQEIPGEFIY
Sequence of GAK (human) (O14976 whole entry, looked up): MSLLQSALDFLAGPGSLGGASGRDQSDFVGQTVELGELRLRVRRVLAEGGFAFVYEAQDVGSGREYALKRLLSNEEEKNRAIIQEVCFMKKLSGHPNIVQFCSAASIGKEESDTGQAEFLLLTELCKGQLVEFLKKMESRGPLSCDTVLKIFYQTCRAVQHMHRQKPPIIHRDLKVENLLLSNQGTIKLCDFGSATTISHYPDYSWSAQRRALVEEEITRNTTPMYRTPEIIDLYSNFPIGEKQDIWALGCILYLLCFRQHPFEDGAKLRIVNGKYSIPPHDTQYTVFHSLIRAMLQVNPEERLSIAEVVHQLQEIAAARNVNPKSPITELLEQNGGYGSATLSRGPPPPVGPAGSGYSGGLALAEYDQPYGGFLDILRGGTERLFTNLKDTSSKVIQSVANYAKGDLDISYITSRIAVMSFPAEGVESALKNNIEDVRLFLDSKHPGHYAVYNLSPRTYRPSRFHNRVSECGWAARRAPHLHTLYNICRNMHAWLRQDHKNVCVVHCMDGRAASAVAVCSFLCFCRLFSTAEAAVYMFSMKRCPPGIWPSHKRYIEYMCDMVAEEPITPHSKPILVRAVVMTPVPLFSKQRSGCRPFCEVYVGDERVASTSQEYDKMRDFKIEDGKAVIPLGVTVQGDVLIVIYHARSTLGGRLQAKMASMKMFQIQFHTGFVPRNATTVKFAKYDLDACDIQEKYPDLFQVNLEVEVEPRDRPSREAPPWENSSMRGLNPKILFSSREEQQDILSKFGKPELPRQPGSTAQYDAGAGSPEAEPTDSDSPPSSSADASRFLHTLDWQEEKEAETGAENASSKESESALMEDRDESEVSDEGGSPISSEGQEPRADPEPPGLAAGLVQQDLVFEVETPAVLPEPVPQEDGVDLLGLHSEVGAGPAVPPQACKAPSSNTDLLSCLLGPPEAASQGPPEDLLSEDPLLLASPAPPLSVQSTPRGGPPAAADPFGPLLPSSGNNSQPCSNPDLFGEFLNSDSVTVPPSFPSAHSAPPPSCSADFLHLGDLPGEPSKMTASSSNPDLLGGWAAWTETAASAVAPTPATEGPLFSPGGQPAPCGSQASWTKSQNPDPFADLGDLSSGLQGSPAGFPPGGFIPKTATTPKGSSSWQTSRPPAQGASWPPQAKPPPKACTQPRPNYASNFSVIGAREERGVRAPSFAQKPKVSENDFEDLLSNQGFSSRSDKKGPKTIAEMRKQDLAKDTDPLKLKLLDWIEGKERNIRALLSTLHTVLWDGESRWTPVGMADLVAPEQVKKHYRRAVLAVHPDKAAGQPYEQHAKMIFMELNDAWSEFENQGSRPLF
Sequence of SLK (human) (Q9H2G2 whole entry, looked up): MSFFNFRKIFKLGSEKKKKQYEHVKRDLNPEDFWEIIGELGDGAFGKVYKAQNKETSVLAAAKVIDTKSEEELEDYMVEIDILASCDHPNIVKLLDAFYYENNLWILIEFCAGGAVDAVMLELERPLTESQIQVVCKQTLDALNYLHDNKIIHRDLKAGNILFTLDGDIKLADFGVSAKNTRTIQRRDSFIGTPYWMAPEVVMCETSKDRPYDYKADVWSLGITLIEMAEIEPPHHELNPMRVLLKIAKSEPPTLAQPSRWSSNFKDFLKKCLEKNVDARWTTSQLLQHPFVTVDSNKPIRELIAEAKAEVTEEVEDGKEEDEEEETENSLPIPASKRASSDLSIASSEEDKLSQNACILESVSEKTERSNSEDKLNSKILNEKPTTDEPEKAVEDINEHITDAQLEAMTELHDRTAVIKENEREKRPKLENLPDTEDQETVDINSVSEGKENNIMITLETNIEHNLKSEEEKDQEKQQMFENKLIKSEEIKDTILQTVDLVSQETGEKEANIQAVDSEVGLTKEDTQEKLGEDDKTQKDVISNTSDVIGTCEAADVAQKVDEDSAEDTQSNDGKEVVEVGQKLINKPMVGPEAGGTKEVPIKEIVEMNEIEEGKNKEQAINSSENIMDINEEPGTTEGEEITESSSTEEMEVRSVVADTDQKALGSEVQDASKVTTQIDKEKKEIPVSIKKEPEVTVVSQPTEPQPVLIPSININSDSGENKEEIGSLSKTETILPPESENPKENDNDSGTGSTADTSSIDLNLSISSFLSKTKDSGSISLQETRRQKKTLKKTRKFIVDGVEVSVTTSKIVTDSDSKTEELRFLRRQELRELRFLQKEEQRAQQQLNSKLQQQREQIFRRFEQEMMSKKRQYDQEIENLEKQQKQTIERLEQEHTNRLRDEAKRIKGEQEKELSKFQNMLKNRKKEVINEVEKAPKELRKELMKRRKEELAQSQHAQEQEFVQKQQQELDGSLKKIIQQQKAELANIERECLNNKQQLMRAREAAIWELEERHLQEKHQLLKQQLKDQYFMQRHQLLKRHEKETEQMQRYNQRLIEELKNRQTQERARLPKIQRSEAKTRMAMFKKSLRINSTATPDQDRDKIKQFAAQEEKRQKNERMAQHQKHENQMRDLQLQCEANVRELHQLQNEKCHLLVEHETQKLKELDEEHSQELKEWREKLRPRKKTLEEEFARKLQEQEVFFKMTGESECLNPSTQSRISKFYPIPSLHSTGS
Sequence of CSNK2A2 (human) (P19784 whole entry, looked up): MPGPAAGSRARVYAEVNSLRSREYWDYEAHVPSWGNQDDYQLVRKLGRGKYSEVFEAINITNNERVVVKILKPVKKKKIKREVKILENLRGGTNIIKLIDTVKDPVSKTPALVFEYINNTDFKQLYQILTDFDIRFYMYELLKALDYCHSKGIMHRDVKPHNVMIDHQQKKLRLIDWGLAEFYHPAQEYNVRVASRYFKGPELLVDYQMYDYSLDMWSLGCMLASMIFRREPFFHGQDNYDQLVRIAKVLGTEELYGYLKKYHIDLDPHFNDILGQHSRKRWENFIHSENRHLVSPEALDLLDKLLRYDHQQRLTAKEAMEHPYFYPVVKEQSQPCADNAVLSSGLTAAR

`CCN1CCN(Cc2cc(NC(=O)c3cccc4cc(-c5ccc(/C=C6\SC(=O)NC6=O)o5)ccc34)cc(C(F)(F)F)c2)CC1` gave a kinase still bound, per cent of control [1] of 34%, a kinase still bound, per cent of control [2] of 33% and a kinase still bound, per cent of control [3] of 0.55%. For the same compound, the kinase still bound, per cent of control [4] was 4.6%, the kinase still bound, per cent of control [5] was 24% and the kinase still bound, per cent of control [6] was 3.9%. It also gave a kinase still bound, per cent of control [7] of 6.4%, a kinase still bound, per cent of control [8] of 11% and a kinase still bound, per cent of control [9] of 15%. For the same compound, the kinase still bound, per cent of control [10] was 0.15%, the kinase still bound, per cent of control [11] was 7% and the kinase still bound, per cent of control [12] was 0.4%. It also gave a kinase still bound, per cent of control [13] of 5.9%, a kinase still bound, per cent of control [14] of 0% and a kinase still bound, per cent of control [15] of 30%. The kinase still bound, per cent of control [16] was 20%, the kinase still bound, per cent of control [17] was 25% and the kinase still bound, per cent of control [18] was 0.3%. For the same compound, the kinase still bound, per cent of control [19] was 13%, the kinase still bound, per cent of control [20] was 1.2% and the kinase still bound, per cent of control [21] was 2.6%. The kinase still bound, per cent of control [22] was 29%, the kinase still bound, per cent of control [23] was 0.15% and the kinase still bound, per cent of control [24] was 7.6%. The kinase still bound, per cent of control [25] was 9%, the kinase still bound, per cent of control [26] was 5.4% and the kinase still bound, per cent of control [27] was 18%. It also gave a kinase still bound, per cent of control [28] of 32%, a kinase still bound, per cent of control [29] of 12% and a kinase still bound, per cent of control [30] of 4.6%. For the same compound, the kinase still bound, per cent of control [31] was 5.8%, the kinase still bound, per cent of control [32] was 2.4% and the kinase still bound, per cent of control [33] was 18%. It also gave a kinase still bound, per cent of control [34] of 32%, a kinase still bound, per cent of control [35] of 30% and a kinase still bound, per cent of control [36] of 0.25%. The IC50 [37] was 774 nM and the IC50 [38] was 814 nM.

Work on `CC(C)Oc1cc(N2CCC(O)CC2)ccc1Nc1ncc2c(n1)N(C1CCCC1)CCC(=O)N2C` yielded a kinase still bound, per cent of control [39] of 0%, a kinase still bound, per cent of control [40] of 29% and a kinase still bound, per cent of control [41] of 14%. It also gave a Kd [42] of 113 nM, a kinase still bound, per cent of control ([42]; compound 10.0 µM) of 2.4% and an IC50 [43] of 605 nM.
